Laboratory results published in patent publication US7566712B2, “Biaryl piperazinyl-pyridine analogues” (Neurogen Corporation, priority 2003, dated 2009).

molecular target: T1, human capsaicin receptor (Homo sapiens, UniProt Q8NER1); test: Calcium mobilization assay, determination of antagonist activity (Example 6); type: cell-based; details: determined as described in Example 6 (calcium mobilization, antagonist activity); Table II
T1 construct: pBK-CMV expression construct encoding the full length human capsaicin receptor; expressed in transfected cells
In short: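 HEK293 clonal lines stably expressing full-length human capsaicin receptor, loaded with Fluo-3 AM in KRH buffer pH 7.4, 1–2 h at 37 °C. Compounds (1–5 μM final) preincubated 0.5–6 h at room temperature, then capsaicin at its EC50 added. FLIPR/Fluoroskan calcium signal; IC50 as 50% decrease of capsaicin response.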

T1 sequence (Q8NER1 whole entry): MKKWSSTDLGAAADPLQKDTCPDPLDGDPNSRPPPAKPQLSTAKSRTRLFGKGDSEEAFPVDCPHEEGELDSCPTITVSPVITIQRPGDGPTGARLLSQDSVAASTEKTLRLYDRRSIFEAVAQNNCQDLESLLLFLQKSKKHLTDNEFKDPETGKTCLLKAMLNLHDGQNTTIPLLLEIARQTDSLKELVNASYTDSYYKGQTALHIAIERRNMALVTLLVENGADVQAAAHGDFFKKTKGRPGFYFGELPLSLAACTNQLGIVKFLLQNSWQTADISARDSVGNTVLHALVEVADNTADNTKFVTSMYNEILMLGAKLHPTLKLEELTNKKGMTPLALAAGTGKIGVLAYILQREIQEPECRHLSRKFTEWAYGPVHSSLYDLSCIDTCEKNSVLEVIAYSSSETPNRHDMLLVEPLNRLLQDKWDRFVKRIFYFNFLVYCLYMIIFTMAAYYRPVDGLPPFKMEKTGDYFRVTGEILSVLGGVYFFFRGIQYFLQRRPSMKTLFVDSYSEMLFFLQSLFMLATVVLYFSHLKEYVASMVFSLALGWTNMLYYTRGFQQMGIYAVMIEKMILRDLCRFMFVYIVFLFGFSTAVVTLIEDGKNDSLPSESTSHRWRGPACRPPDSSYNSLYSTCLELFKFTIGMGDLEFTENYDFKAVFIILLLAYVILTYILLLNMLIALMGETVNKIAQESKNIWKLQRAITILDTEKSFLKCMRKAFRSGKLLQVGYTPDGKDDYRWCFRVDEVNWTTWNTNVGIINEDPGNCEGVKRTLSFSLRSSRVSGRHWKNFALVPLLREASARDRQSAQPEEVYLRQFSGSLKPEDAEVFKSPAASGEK

| IC50 | SMILES |
| --- | --- |
| ≤ 1000 nM | COC[C@H]1CCCN1c1nc(-c2ccc(F)c(Cl)c2)cc(N2CCN(c3ncccc3Cl)C[C@H]2C)n1 [Example 733, 4-(3-chloro-4-fluorophenyl)-6-[(2R)-4-(3-chloropyridin-2-yl)-2-methylpiperazin-1-yl]-2-[(2R)-2-(methoxymethyl)pyrrolidin-1-yl]pyrimidine] |
| ≤ 1000 nM | C[C@@H]1CN(c2ncccc2Cl)CCN1c1cc(-c2ccc(F)c(Cl)c2)nc(N2CCCCC2)n1 [Example 734, 4-(3-chloro-4-fluorophenyl)-6-[(2R)-4-(3-chloropyridin-2-yl)-2-methylpiperazin-1-yl]-2-piperidin-1-ylpyrimidine] |
| ≤ 1000 nM | COC[C@@H]1CCCN1c1nc(-c2ccc(F)c(Cl)c2)cc(N2CCN(c3ncccc3Cl)C[C@H]2C)n1 [Example 735, 4-(3-chloro-4-fluorophenyl)-6-[(2R)-4-(3-chloropyridin-2-yl)-2-methylpiperazin-1-yl]-2-[(2S)-2-(methoxymethyl)pyrrolidin-1-yl]pyrimidine] |
| ≤ 1000 nM | Cc1cc(-c2cc(N3CCN(c4ncccc4C(F)(F)F)CC3)nc(N(C)C3CC3)n2)ccc1F [Example 736, N-cyclopropyl-4-(4-fluoro-3-methylphenyl)-N-methyl-6-{4-[3-(trifluoromethyl)pyridin-2-yl]piperazin-1-yl}pyrimidin-2-amine] |
| ≤ 1000 nM | COCCN(C)c1nc(-c2ccc(F)c(C)c2)cc(N2CCN(c3ncccc3C(F)(F)F)CC2)n1 [Example 737, 4-(4-fluoro-3-methylphenyl)-N-(2-methoxyethyl)-N-methyl-6-{4-[3-(trifluoromethyl)pyridin-2-yl]piperazin-1-yl}pyrimid in-2-amine] |
| ≤ 1000 nM | CCN(C)c1nc(-c2ccc(F)c(C)c2)cc(N2CCN(c3ncccc3C(F)(F)F)CC2)n1 [Example 738, N-ethyl-4-(4-fluoro-3-methylphenyl)-N-methyl-6-{4-[3-(trifluoromethyl)pyridin-2-yl]piperazin-1-yl)pyrimidin-2-amine] |
| ≤ 1000 nM | Cc1cc(-c2cc(N3CCN(c4ncccc4C(F)(F)F)CC3)nc(N3C(C)C=CC3C)n2)ccc1F (stereo not drawn) [Example 739, 2-(2,5-dimethyl-2,5-dihydro-1H-pyrrol-1-yl)-4-(4-fluoro-3-methylphenyl)-6-{4-[3-(trifluoromethyl)pyridin-2-yl]piperazin-1-yl}pyrimidine] |
| ≤ 1000 nM | CC1CC(=O)N1c1nc(-c2ccc(F)c(Cl)c2)cc(N2CCN(c3ncccc3C(F)(F)F)CC2)n1 (stereo not drawn) [Example 740, 1-(4-(3-chloro-4-fluorophenyl)-6-{4-[3-(trifluoromethyl)pyridin-2-yl]piperazin-1-yl}pyrimidin-2-yl)-4-methylazetidin-2-one] |
| ≤ 1000 nM | CC1CCCCN1c1nc(-c2ccc(F)c(Cl)c2)cc(N2CCN(c3ncccc3Cl)C[C@H]2C)n1 (stereo partly drawn) [Example 741, 4-(3-chloro-4-fluorophenyl)-6-[(2R)-4-(3-chloropyridin-2-yl)-2-methylpiperazin-1-yl]-2-(2-methytpiperidin-1-yl)pyrimidine] |
| ≤ 1000 nM | C[C@@H]1CN(c2ncccc2Cl)CCN1c1cc(-c2ccc(F)c(Cl)c2)nc(N2CCOC(C)(C)C2)n1 [Example 742, 4-{4-(3-chloro-4-fluorophenyl)-6-[(2R)-4-(3-chloropyridin-2-yl)-2-methylpiperazin-1-yl]pyrimidin-2-yl}-2,2-dimethylmorpholine] |
| ≤ 1000 nM | Cc1cc(-c2cc(N3CCN(c4ncccc4Cl)CC3)nc(N3CCOC(C)(C)C3)n2)ccc1F [Example 743, 4-{4-[4-(3-chloropyridin-2-yl)piperazin-1-yl]-6-(4-fluoro-3-methylphenyl)pyrimidin-2-yl]-2,2-dimethylmorpholine] |
| ≤ 1000 nM | Cc1cc(-c2cc(N3CCN(c4ncccc4Cl)CC3)nc(N3CCCCC3C)n2)ccc1F (stereo not drawn) [Example 744, 4-[4-(3-chloropyridin-2-yl)piperazin-1-yl]-6-(4-fluoro-3-methylphenyl)-2-(2-methylpiperidin-1-yl)pyrimidine] |
| ≤ 1000 nM | Cc1cc(-c2cc(N3CCN(c4ncccc4Cl)C[C@H]3C)nc(N3CCCCC3C)n2)ccc1F (stereo partly drawn) [Example 745, 4-[(2R)-4-(3-chloropyridin-2-yl)-2-methylpiperazin-1-yl]-6-(4-fluoro-3-methylphenyl)-2-(2-methylpiperidin-1-yl)pyrimidine] |
| ≤ 1000 nM | CC1CCN1c1nc(-c2ccc(F)c(Cl)c2)cc(N2CCN(c3ncccc3C(F)(F)F)CC2)n1 (stereo not drawn) [Example 746, 4-(3-ohloro-4-fluorophenyl)-2-(2-methylazetidin-1-yl)-6-{4-[3-(trifluoromethyl)pyridin-2-yl]piperazin-1-yl}pyrimidine] |
| ≤ 1000 nM | O=C1CCN1c1nc(-c2ccc(F)c(Cl)c2)cc(N2CCN(c3ncccc3C(F)(F)F)CC2)n1 [Example 747, 1-(4-(3-chloro-4-fluorophenyl)-6-{4-(3-(trifluoromethyl)pyridin-2-yl]piperazin-1-yl}pyrimidin-2-yl)azetidin-2-one] |
| ≤ 1000 nM | CC1CCCN1c1nc(-c2ccc(F)c(F)c2)cc(N2CCN(c3ncccc3F)CC2)n1 (stereo not drawn) [Example 748, 4-(3,4-difluorophenyl)-6-[4-(3-fluoropyridin-2-yl)piperazin-1-yl]-2-(2-methylpyrrolidin-1-yl)pyrimidine] |
| ≤ 1000 nM | CC1CCCN1c1nc(-c2ccc(F)cc2)cc(N2CCN(c3ncccc3F)CC2)n1 (stereo not drawn) [Example 749, 4-(4-fluorophenyl)-6-[4-(3-fluoropyridin-2-yl)piperazin-1-yl]-2-(2-methylpyrrolidin-1-yl)pyrimidine] |
| ≤ 1000 nM | OCCN1CCN(c2nc(-c3ccc(F)c(Cl)c3)cc(N3CCN(c4ncccc4C(F)(F)F)CC3)n2)CC1 [Example 750, 2-[4-(4-(3-chloro-4-fluorophenyl)-6-{4-[3-(trifluoromethyl)pyridin-2-yl]piperazin-1-yl}pyrimidin-2-yl)piperazin-1-yl]ethanol] |
| ≤ 1000 nM | CC1CCC(C)N1c1nc(-c2ccc(F)c(Cl)c2)cc(N2CCN(c3ncccc3Cl)CC2)n1 (stereo not drawn) [Example 751, 4-(3-chloro-4-fluorophenyl)-6-[4-(3-chloropyridin-2-yl)piperazin-1-yl]-2-(2,5-dimethylpyrrolidin-1-yl)pyrimidine] |
| ≤ 1000 nM | CC1CCC(C)N1c1nc(-c2ccc(F)c(Cl)c2)cc(N2CCN(c3ncccc3Cl)C[C@H]2C)n1 (stereo partly drawn) [Example 752, 4-(3-chloro-4-fluorophenyl)-6-[(2R)-4-(3-chloropyridin-2-yl)-2-methylpiperazin-1-yl]-2-(2,5-dimethylpyrrolidin-1-yl)pyrimidine] |
| ≤ 1000 nM | Cc1cc(-c2cc(N3CCN(c4ncccc4C(F)(F)F)C[C@H]3C)nc(N3CCCC3)n2)ccc1F [Example 753, 4-(4-fluoro-3-methylphenyl)-6-{(2R)-2-methyl-4-[3-(trifluoromethyl)pyridin-2-yl]piperazin-1-yl}-2-pyrrolidin-1-ylpyrimidine] |
| ≤ 1000 nM | Cc1cc(-c2cc(N3CCN(c4ncccc4C(F)(F)F)C[C@H]3C)nc(N3CCCC3C)n2)ccc1F (stereo partly drawn) [Example 754, 4-(4-fluoro-3-methyiphenyl)-2-(2-methylpyrrolidin-1-yl)-6-{(2R)-2-methyt-4-[3-(trifluoromethyl)pyridin-2-yl]piperazin-1-yl}pyrimidine] |
| ≤ 1000 nM | Cc1cc(-c2cc(N3CCN(c4ncccc4C(F)(F)F)C[C@H]3C)nc(N3C(C)CCC3C)n2)ccc1F (stereo partly drawn) [Example 755, 2-(2,5-dimethylpyrrolidin-1-yl)-4-(4-fluoro-3-methylphenyl)-6-{(2R)-2-methyl-4-[3-(trifluoromethyl)pyridin-2-yl]piperazin-1-yl}pyrimidine] |
| ≤ 1000 nM | Cc1cc(-c2cc(N3CCN(c4ncccc4C(F)(F)F)CC3)nc(N3CCC3C)n2)ccc1F (stereo not drawn) [Example 756, 4-(4-fluoro-3-methylphenyl)-2-(2-methylazetidin-1-yl)-6-{4-[3-(trifluoromethyl)pyridin-2-yl]piperazin-1-yl}pyrimidine] |
| ≤ 1000 nM | CCC(C)N(C)c1nc(-c2ccc(F)c(C)c2)cc(N2CCN(c3ncccc3C(F)(F)F)CC2)n1 (stereo not drawn) [Example 757, N-(sec-butyl)-4-(4-fluoro-3-methylphenyl)-N-methyl-6-{4-[3-(trifluoromethyl)pyridin-2-yl]piperazin-1-yl}pyrimidin-2-amine] |
| ≤ 1000 nM | CC(CO)N(C)c1nc(-c2ccc(F)c(Cl)c2)cc(N2CCN(c3ncccc3C(F)(F)F)CC2)n1 (stereo not drawn) [Example 758, 2-[(4-(3-chloro-4-fluorophenyl)-6-{4-[3-(trifluoromethyl)pyridin-2-yl]piperazin-1-yl}pyrimidin-2-yl)(methyl)amino]propan-1-ol] |
| ≤ 1000 nM | Cc1cc(-c2cc(N3CCN(c4ncccc4C(F)(F)F)C[C@H]3C)nc(N3CCCCC3)n2)ccc1F [Example 759, 4-(4-fluoro-3-methylphenyl)-6-{(2R)-2-methyl-4-[3-(trifluoromethyl)pyridin-2-yl]piperazin-1-yl}-2-piperidin-1-ylpyrimidine] |
| ≤ 1000 nM | COC[C@@H]1CCCN1c1nc(-c2ccc(F)c(C)c2)cc(N2CCN(c3ncccc3C(F)(F)F)C[C@H]2C)n1 [Example 760, 4-(4-fluoro-3-methylphenyl)-2-[(2S)-2-(methoxymethyl)pyrrolidin-1-yl]-6-{(2R)-2-methyl-4-[3-(trifluoromethyl)pyridin-2-yl]piperazin-1-yl}pyrimidine] |
| ≤ 1000 nM | COC[C@H]1CCCN1c1nc(-c2ccc(F)c(C)c2)cc(N2CCN(c3ncccc3C(F)(F)F)C[C@H]2C)n1 [Example 761, 4-(4-fluoro-3-methylphenyl)-2-[(2R)-2-(methoxymethyl)pyrrolidin-1-yl]-6-{(2R)-2-methyl-4-[3-(trifluoromethyl)pyridin-2-yl]piperazin-1-yl}pyrimidine] |
| ≤ 1000 nM | Cc1cc(-c2cc(N3CCN(c4ncccc4C(F)(F)F)C[C@H]3C)nc(N(C)C(C)C)n2)ccc1F [Example 762, 4-(4-fluoro-3-methylphenyl)-N-isopropyl-N-methyl-6-{(2R)-2-methyl-4-[3-(trifluoromethyl)pyridin-2-yl]piperazin-1-yl}pyrimidin-2-amine] |
